Results as given in ChEMBL document CHEMBL3817824, “Synthesis and biological evaluation of new [1,2,4]triazolo[4,3-a]pyridine derivatives as potential c-Met inhibitors” (Bioorg Med Chem, 2016).

Experiments:
[1] = molecular target: Hepatocyte growth factor receptor (Homo sapiens, UniProt P08581); assay: Inhibition of c-Met (unknown origin) incubated for 1 hr by spectrophotometric analysis
NCI-H1993 = assay: Cytotoxicity against human NCI-H1993 cells assessed as reduction in cell survival incubated for 3 days by cell titre-glo assay; type: functional, cell-based; conditions: NCI-H1993, 72 h
[2] = Cytotoxicity against human HuH7 cells assessed as reduction in cell survival incubated for 3 days by cell titre-glo assay; type: functional, cell-based; conditions: Huh-7, 72 h
NCI-N87 = assay: Cytotoxicity against human NCI-N87 cells assessed as reduction in cell survival incubated for 3 days by cell titre-glo assay; type: functional, cell-based; conditions: NCI-N87, 72 h
A549 = assay: Cytotoxicity against human A549 cells assessed as reduction in cell survival incubated for 3 days by cell titre-glo assay; type: functional, cell-based; conditions: A549, 72 h
[3] = Cytotoxicity against human HCCLM3 cells assessed as reduction in cell survival incubated for 3 days by cell titre-glo assay; type: functional, cell-based; conditions: HCCLM3, 72 h
[4] = molecular target: Tyrosine-protein kinase ABL1 (Homo sapiens, UniProt P00519); assay: Inhibition of ABL (unknown origin) incubated for 1 hr by spectrophotometric analysis
[5] = molecular target: RAC-alpha serine/threonine-protein kinase (Homo sapiens, UniProt P31749); assay: Inhibition of AKT1 (unknown origin) incubated for 1 hr by spectrophotometric analysis
RAC-alpha serine/threonine-protein kinase, sequence (P31749 whole entry): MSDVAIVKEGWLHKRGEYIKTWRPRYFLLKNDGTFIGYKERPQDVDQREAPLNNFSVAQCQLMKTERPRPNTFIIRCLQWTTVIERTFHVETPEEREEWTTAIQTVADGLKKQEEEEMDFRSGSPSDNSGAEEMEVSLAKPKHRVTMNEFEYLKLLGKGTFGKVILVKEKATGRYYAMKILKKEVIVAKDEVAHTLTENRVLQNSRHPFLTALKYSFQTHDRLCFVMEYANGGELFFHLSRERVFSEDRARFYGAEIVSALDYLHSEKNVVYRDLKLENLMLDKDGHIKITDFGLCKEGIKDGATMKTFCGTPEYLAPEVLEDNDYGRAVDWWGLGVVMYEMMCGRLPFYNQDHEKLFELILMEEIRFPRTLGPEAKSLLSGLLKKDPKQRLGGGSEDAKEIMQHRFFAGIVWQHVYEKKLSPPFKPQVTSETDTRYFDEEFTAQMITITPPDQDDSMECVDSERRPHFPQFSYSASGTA

Aurora kinase A = Aurora kinase A (Homo sapiens, UniProt O14965); assay: Inhibition of Aurora A (unknown origin) incubated for 1 hr by spectrophotometric analysis
Aurora kinase A, sequence (O14965 whole entry): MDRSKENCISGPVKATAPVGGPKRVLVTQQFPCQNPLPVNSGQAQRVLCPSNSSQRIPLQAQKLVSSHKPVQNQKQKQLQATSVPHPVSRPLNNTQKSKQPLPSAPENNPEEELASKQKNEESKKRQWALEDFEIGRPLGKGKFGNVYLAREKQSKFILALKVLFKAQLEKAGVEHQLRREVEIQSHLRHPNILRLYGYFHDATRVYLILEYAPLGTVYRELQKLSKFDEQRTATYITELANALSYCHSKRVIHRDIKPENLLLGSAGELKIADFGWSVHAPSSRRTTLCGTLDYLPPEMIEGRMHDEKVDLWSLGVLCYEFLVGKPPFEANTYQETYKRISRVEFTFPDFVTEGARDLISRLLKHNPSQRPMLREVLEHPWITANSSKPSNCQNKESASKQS

[6] = molecular target: Tyrosine-protein kinase receptor UFO (Homo sapiens, UniProt P30530); assay: Inhibition of AXL (unknown origin) incubated for 1 hr by spectrophotometric analysis
[7] = molecular target: Cyclin-dependent kinase 2 (Homo sapiens, UniProt P24941); assay: Inhibition of CDK2 (unknown origin) incubated for 1 hr by spectrophotometric analysis
Ephrin type-A receptor 2 = Ephrin type-A receptor 2 (Homo sapiens, UniProt P29317); assay: Inhibition of ECK (unknown origin) incubated for 1 hr by spectrophotometric analysis
[8] = molecular target: Epidermal growth factor receptor (Homo sapiens, UniProt P00533); assay: Inhibition of EGFR (unknown origin) incubated for 1 hr by spectrophotometric analysis
[9] = molecular target: Epidermal growth factor receptor (Homo sapiens, UniProt P00533, L858R); assay: Inhibition of EGFR L858R mutant (unknown origin) incubated for 1 hr by spectrophotometric analysis; type: protein assay
[10] = molecular target: Epidermal growth factor receptor (Homo sapiens, UniProt P00533, T790M); assay: Inhibition of EGFR T790M mutant (unknown origin) incubated for 1 hr by spectrophotometric analysis; type: protein assay
[11] = molecular target: Epidermal growth factor receptor (Homo sapiens, UniProt P00533, L858R/T790M); assay: Inhibition of EGFR T790M/L858R mutant (unknown origin) incubated for 1 hr by spectrophotometric analysis; type: protein assay
Epidermal growth factor receptor (Homo sapiens, UniProt P00533, L858R/T790M), sequence (P00533 25-1210 T790M/L858R limits assumed): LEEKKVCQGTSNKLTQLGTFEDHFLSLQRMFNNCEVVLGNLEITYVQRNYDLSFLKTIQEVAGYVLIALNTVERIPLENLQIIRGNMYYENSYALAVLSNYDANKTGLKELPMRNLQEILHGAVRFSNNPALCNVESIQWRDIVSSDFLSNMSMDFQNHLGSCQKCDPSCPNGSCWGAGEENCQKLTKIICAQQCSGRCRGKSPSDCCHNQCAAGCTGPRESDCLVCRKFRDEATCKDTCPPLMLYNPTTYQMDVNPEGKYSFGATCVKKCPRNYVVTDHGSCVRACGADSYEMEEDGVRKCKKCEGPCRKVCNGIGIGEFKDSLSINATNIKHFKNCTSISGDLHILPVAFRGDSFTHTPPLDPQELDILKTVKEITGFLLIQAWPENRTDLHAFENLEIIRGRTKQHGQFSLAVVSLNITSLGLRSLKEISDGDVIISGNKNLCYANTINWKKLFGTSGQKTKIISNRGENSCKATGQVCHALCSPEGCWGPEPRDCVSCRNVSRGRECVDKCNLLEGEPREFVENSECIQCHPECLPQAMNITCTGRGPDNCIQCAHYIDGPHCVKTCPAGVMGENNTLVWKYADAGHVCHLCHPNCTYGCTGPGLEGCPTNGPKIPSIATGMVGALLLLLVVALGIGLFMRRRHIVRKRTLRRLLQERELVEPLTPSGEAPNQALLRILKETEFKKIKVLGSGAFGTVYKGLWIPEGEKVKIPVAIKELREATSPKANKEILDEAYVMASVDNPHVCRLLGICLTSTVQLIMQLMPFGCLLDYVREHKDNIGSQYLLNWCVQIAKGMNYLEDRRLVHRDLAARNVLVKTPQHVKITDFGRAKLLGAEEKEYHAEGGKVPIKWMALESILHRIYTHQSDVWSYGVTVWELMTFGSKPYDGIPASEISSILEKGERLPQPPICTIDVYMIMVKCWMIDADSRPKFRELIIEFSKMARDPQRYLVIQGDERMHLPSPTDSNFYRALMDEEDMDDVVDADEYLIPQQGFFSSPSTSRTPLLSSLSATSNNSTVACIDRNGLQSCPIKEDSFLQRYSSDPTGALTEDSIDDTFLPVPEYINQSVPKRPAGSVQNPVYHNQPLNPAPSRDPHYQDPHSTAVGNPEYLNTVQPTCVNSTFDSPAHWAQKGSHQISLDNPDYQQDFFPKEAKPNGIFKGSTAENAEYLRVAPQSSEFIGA

Ephrin type-A receptor 1 = Ephrin type-A receptor 1 (Homo sapiens, UniProt P21709); assay: Inhibition of EPHA1 (unknown origin) incubated for 1 hr by spectrophotometric analysis
Ephrin type-B receptor 2 = Ephrin type-B receptor 2 (Homo sapiens, UniProt P29323); assay: Inhibition of EPHB2 (unknown origin) incubated for 1 hr by spectrophotometric analysis
[12] = molecular target: Vascular endothelial growth factor receptor 1 (Homo sapiens, UniProt P17948); assay: Inhibition of FLT1 (unknown origin) incubated for 1 hr by spectrophotometric analysis
[13] = molecular target: Vascular endothelial growth factor receptor 3 (Homo sapiens, UniProt P35916); assay: Inhibition of FLT4 (unknown origin) incubated for 1 hr by spectrophotometric analysis
[14] = molecular target: Fibroblast growth factor receptor 1 (Homo sapiens, UniProt P11362); assay: Inhibition of FGFR1 (unknown origin) incubated for 1 hr by spectrophotometric analysis
[15] = molecular target: Fibroblast growth factor receptor 2 (Homo sapiens, UniProt P21802); assay: Inhibition of FGFR2 (unknown origin) incubated for 1 hr by spectrophotometric analysis
Fibroblast growth factor receptor 2, sequence (P21802 whole entry): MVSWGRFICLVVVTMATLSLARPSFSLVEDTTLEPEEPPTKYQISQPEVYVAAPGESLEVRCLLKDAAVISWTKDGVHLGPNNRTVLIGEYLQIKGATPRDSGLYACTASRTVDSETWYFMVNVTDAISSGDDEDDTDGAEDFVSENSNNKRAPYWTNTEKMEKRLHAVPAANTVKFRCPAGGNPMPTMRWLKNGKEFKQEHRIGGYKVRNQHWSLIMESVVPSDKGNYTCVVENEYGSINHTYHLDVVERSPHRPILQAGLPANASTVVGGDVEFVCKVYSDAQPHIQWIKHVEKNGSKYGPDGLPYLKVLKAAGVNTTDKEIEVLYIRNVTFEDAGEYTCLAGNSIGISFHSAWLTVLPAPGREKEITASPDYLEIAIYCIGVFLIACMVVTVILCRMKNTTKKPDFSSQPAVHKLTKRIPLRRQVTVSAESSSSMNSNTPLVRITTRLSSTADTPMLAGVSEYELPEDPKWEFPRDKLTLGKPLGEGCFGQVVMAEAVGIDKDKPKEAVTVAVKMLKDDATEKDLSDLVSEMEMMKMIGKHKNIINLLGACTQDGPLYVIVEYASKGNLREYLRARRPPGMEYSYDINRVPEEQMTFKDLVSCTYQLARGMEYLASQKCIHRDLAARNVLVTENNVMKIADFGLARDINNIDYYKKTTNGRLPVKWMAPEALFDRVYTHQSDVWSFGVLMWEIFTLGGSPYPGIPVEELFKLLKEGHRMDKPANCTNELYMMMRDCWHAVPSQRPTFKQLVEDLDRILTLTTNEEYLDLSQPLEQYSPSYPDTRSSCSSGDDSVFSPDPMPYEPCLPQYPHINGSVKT

[16] = molecular target: Fibroblast growth factor receptor 3 (Homo sapiens, UniProt P22607); assay: Inhibition of FGFR3 (unknown origin) incubated for 1 hr by spectrophotometric analysis
[17] = molecular target: Fibroblast growth factor receptor 4 (Homo sapiens, UniProt P22455); assay: Inhibition of FGFR4 (unknown origin) incubated for 1 hr by spectrophotometric analysis
[18] = molecular target: Receptor tyrosine-protein kinase erbB-2 (Homo sapiens, UniProt P04626); assay: Inhibition of HER2 (unknown origin) incubated for 1 hr by spectrophotometric analysis
[19] = molecular target: Insulin-like growth factor 1 receptor (Homo sapiens, UniProt P08069); assay: Inhibition of IGF-1R (unknown origin) incubated for 1 hr by spectrophotometric analysis
Insulin-like growth factor 1 receptor, sequence (P08069 31-736 limits assumed): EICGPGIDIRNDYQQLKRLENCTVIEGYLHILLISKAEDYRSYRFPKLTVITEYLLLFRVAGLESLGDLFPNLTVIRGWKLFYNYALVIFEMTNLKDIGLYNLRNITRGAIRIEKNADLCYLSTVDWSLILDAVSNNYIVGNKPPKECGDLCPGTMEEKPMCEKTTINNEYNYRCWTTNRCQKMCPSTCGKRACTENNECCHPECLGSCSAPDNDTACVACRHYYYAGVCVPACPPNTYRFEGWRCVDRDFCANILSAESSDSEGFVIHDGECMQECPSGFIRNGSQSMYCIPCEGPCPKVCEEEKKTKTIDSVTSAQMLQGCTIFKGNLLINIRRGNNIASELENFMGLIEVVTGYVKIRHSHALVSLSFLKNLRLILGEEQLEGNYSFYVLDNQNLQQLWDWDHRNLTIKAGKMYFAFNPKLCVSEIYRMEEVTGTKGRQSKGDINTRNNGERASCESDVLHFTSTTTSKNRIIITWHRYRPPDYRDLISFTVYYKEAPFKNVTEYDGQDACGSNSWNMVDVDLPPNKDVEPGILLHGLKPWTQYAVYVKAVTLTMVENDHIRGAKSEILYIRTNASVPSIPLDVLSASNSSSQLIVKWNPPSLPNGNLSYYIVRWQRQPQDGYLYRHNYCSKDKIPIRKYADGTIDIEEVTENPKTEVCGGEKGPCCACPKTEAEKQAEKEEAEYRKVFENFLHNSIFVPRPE
Insulin-like growth factor 1 receptor, sequence (P08069 741-1367 limits assumed): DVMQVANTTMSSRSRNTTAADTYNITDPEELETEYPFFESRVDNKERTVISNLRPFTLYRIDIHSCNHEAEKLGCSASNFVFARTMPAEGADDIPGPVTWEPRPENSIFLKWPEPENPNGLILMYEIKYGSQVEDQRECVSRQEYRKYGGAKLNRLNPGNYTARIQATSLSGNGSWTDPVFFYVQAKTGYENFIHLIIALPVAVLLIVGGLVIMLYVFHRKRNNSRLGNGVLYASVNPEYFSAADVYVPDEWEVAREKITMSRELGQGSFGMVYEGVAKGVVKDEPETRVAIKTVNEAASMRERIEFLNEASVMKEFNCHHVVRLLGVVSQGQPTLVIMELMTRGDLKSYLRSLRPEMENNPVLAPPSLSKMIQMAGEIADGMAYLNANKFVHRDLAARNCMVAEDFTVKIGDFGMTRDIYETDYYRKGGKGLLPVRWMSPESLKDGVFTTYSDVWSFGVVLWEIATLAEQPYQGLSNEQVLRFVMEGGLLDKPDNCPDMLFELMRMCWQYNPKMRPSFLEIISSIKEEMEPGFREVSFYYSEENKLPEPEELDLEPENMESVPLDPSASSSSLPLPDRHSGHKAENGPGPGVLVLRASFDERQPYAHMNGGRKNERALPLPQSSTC

Insulin receptor = Insulin receptor (Homo sapiens, UniProt P06213); assay: Inhibition of INSR (unknown origin) incubated for 1 hr by spectrophotometric analysis
[20] = molecular target: Tyrosine-protein kinase JAK1 (Homo sapiens, UniProt P23458); assay: Inhibition of JAK1 (unknown origin) incubated for 1 hr by spectrophotometric analysis
[21] = molecular target: Tyrosine-protein kinase JAK3 (Homo sapiens, UniProt P52333); assay: Inhibition of JAK3 (unknown origin) incubated for 1 hr by spectrophotometric analysis
[22] = molecular target: Leukocyte tyrosine kinase receptor (Homo sapiens, UniProt P29376); assay: Inhibition of LTK (unknown origin) incubated for 1 hr by spectrophotometric analysis
[23] = molecular target: Mitogen-activated protein kinase 14 (Homo sapiens, UniProt Q16539); assay: Inhibition of p38alpha (unknown origin) incubated for 1 hr by spectrophotometric analysis
[24] = molecular target: Platelet-derived growth factor receptor beta (Homo sapiens, UniProt P09619); assay: Inhibition of PDGFRbeta (unknown origin) incubated for 1 hr by spectrophotometric analysis
[25] = molecular target: Protein kinase C alpha type (Homo sapiens, UniProt P17252); assay: Inhibition of PKCalpha (unknown origin) incubated for 1 hr by spectrophotometric analysis
[26] = molecular target: Protein kinase C zeta type (Homo sapiens, UniProt Q05513); assay: Inhibition of PKCzeta (unknown origin) incubated for 1 hr by spectrophotometric analysis
[27] = molecular target: Serine/threonine-protein kinase N1 (Homo sapiens, UniProt Q16512); assay: Inhibition of PKN1 (unknown origin) incubated for 1 hr by spectrophotometric analysis
[28] = molecular target: Proto-oncogene tyrosine-protein kinase receptor Ret (Homo sapiens, UniProt P07949); assay: Inhibition of RET (unknown origin) incubated for 1 hr by spectrophotometric analysis
[29] = molecular target: Proto-oncogene tyrosine-protein kinase Src (Homo sapiens, UniProt P12931); assay: Inhibition of SRC (unknown origin) incubated for 1 hr by spectrophotometric analysis
Proto-oncogene tyrosine-protein kinase Src, sequence (P12931 2-536 limits assumed): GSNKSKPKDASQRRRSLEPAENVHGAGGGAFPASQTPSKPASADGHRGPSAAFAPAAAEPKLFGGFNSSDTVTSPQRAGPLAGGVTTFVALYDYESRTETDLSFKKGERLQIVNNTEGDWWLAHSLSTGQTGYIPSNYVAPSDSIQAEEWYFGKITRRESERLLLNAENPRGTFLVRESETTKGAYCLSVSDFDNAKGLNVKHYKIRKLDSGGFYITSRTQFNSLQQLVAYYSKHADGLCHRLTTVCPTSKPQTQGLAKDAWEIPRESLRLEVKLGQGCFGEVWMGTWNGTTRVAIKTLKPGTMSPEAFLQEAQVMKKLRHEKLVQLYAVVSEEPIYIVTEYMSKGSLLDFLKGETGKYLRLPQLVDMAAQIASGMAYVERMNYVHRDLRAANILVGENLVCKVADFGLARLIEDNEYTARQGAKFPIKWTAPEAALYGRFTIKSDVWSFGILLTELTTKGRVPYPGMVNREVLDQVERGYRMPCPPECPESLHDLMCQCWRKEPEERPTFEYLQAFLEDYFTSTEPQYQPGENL

[30] = molecular target: Tyrosine-protein kinase SYK (Homo sapiens, UniProt P43405); assay: Inhibition of SYK (unknown origin) incubated for 1 hr by spectrophotometric analysis
Angiopoietin-1 receptor = Angiopoietin-1 receptor (Homo sapiens, UniProt Q02763); assay: Inhibition of TIE2 (unknown origin) incubated for 1 hr by spectrophotometric analysis
[31] = molecular target: cAMP-dependent protein kinase catalytic subunit alpha (Homo sapiens, UniProt P17612); assay: Inhibition of PKACalpha (unknown origin) incubated for 1 hr by spectrophotometric analysis

## CN1C(=O)COc2c1cnc1ccc(Sc3nnc4c(F)cc(-c5cnn(C)c5)cn34)cc21 [DALMELITINIB]
[1]
  IC50: 0.0007 µM
NCI-H1993
  IC50: 0.014 µM
[2]
  IC50: > 10 µM
NCI-N87
  IC50: > 10 µM
A549
  IC50: > 10 µM
[3]
  IC50: 0.033 µM
[4]
  IC50: > 30 µM
[5]
  IC50: > 30 µM
Aurora kinase A
  IC50: > 30 µM
[6]
  IC50: 8.69 µM
[7]
  IC50: > 30 µM
Ephrin type-A receptor 2
  IC50: > 30 µM
[8]
  IC50: > 30 µM
[9]
  IC50: > 30 µM
[10]
  IC50: > 30 µM
[11]
  IC50: > 30 µM
Ephrin type-A receptor 1
  IC50: > 30 µM
Ephrin type-B receptor 2
  IC50: > 30 µM
[12]
  IC50: > 30 µM
[13]
  IC50: > 30 µM
[14]
  IC50: > 30 µM
[15]
  IC50: > 30 µM
[16]
  IC50: > 30 µM
[17]
  IC50: > 30 µM
[18]
  IC50: > 30 µM
[19]
  IC50: > 30 µM
Insulin receptor
  IC50: > 30 µM
[20]
  IC50: > 30 µM
[21]
  IC50: > 30 µM
[22]
  IC50: > 30 µM
[23]
  IC50: > 30 µM
[24]
  IC50: > 30 µM
[25]
  IC50: > 30 µM
[26]
  IC50: > 30 µM
[27]
  IC50: > 30 µM
[28]
  IC50: > 30 µM
[29]
  IC50: 15.5 µM
[30]
  IC50: > 30 µM
Angiopoietin-1 receptor
  IC50: > 30 µM
[31]
  IC50: > 30 µM
